Source: ChEMBL document CHEMBL1124525, “Hexestrol-linked cytotoxic agents: synthesis and binding affinity for estrogen receptors” (J Med Chem, 1989)

Key:
[1] = target: T1, Estrogen receptor (Rattus norvegicus) (UniProt P06211+Q62986); experiment: Binding affinity to estrogen receptor; assay type: protein assay
[2] = target: T1, Estrogen receptor (Rattus norvegicus); experiment: Relative binding affinity for estrogen receptor; assay type: protein assay

| relative binding affinity (RBA) [1] | relative binding affinity (RBA) [2] | SMILES |
| --- | --- | --- |
| 0.4 |  | CC[C@@](C)(c1ccc(O)cc1)[C@H](CCCCSCCO)c1ccc(O)cc1 (relative stereo) |
| 1 |  | CC[C@@](C)(c1ccc(O)cc1)[C@H](CCCCOC(C)=O)c1ccc(O)cc1 |
|  | 0.1 | CC[C@@](C)(c1ccc(O)cc1)[C@H](CCCC(=O)O)c1ccc(O)cc1 |
| 0.2 |  | CCSCCCCC(c1ccc(O)cc1)C(C)(CC)c1ccc(O)cc1 (stereo unspecified) |
| 1 |  | CCCC[C@H](c1ccc(O)cc1)[C@@](C)(CC)c1ccc(O)cc1 (relative stereo) |
| 1.5 |  | CC[C@@](C)(c1ccc(O)cc1)[C@H](CCCCO)c1ccc(O)cc1 (relative stereo) |
| 1 |  | CC[C@@](C)(c1ccc(O)cc1)[C@H](CCCCC=O)c1ccc(O)cc1 |
| 0.9 |  | CC[C@@](C)(c1ccc(O)cc1)[C@H](CCCCN(CCO)CCO)c1ccc(O)cc1 (relative stereo) |
| 1 |  | CC[C@@](C)(c1ccc(O)cc1)[C@H](CCCCBr)c1ccc(O)cc1 (relative stereo) |
| 1.5 |  | CC[C@@](C)(c1ccc(O)cc1)[C@H](CCCCCl)c1ccc(O)cc1 (relative stereo) |
| 1 |  | CC[C@@](C)(c1ccc(O)cc1)[C@H](CCCCOCCOCCCl)c1ccc(O)cc1 (relative stereo) |
| 0.1 |  | CC[C@@](C)(c1cc(Br)c(O)c(Br)c1)[C@H](CCCCO)c1ccc(O)c(Br)c1 |
| 0.2 |  | CC[C@@](C)(c1ccc(O)cc1)[C@H](CCCCI)c1ccc(O)cc1 (relative stereo) |
| 1 |  | CC[C@@](C)(c1ccc(O)cc1)[C@H](CCCC=O)c1ccc(O)cc1 |
| 0.1 |  | CC[C@@](C)(c1ccc(O)cc1)[C@H](CCCC(=O)NCCO)c1ccc(O)cc1 |
| 1 |  | CC[C@@](C)(c1ccc(O)cc1)[C@H](CCCCOCCO)c1ccc(O)cc1 |
| 1 |  | CC[C@@](C)(c1ccc(O)cc1)[C@H](CCCCOCCOCCO)c1ccc(O)cc1 |
| 0.2 |  | CC[C@@](C)(c1ccc(O)cc1)[C@H](CCCC(=O)OC)c1ccc(O)cc1 |
| 0.2 |  | CC[C@@](C)(c1ccc(O)cc1)[C@H](CCCC(=O)NC)c1ccc(O)cc1 |
| 2 |  | CC[C@@](C)(c1ccc(O)cc1)[C@H](CCCCN)c1ccc(O)cc1 (relative stereo) |
| 1 |  | CC[C@@](C)(c1ccc(O)cc1)[C@H](CCCCOCCOCCOCCO)c1ccc(O)cc1 |
| 0.3 |  | CC[C@@](C)(c1ccc(O)cc1)[C@H](CCCCOS(C)(=O)=O)c1ccc(O)cc1 |
| 0.2 |  | CC[C@@](C)(c1ccc(O)cc1)[C@H](CCCC(=O)N(CCO)CCO)c1ccc(O)cc1 |
| 1 |  | C=CCCC[C@H](c1ccc(O)cc1)[C@@](C)(CC)c1ccc(O)cc1 (relative stereo) |
| 0.3 |  | CC[C@@](C)(c1ccc(O)cc1)[C@H](CCCCOCCCl)c1ccc(O)cc1 (relative stereo) |
| 0.5 |  | CC[C@@](C)(c1ccc(O)cc1)[C@H](CCCCOCCOCCOCCCl)c1ccc(O)cc1 (relative stereo) |
| 1 |  | CC[C@@](C)(c1ccc(O)cc1)[C@H](CCCCNC(=O)N(CCCl)N=O)c1ccc(O)cc1 |
| 0.9 |  | CC[C@@](C)(c1ccc(O)cc1)[C@H](CCCC(N)=O)c1ccc(O)cc1 |

| SMILES | relative binding affinity (RBA) [1] | relative binding affinity (RBA) [2] |
| --- | --- | --- |
| CC[C@@](C)(c1ccc(O)cc1)[C@H](CCCCN1CCCOP1(=O)N(CCCl)CCCl)c1ccc(O)cc1 (relative stereo) | 1 |  |
| CC[C@](C)(c1ccc(O)cc1)[C@H](CCCCNCCCl)c1ccc(O)cc1 (relative stereo) | 1 |  |
| CC[C@](C)(c1ccc(O)cc1)[C@H](CCCCN(CCCl)CCCl)c1ccc(O)cc1 (relative stereo) | 2.5 |  |
